Source: publication PMC6618241 (Angewandte Chemie (International Ed. in English), 2019)

Test system: MRSA USA300 LAC
Experiment: Antimicrobial activity assay
Format: cell-based, Staphylococcus aureus

Substance: (CPraWLVWV) (head to tail) [compound 24, 2‐Pra‐6‐Trp‐lug]
- antimicrobial activity against USA300 (in words) (MIC ≥100 μg mL^−1 regarded as inactive): active
- change of antimicrobial activity relative to 1 (from MIC values, compared with 1): equal activity
